For one experiment, the target named is T1, TTR HBP (Homo sapiens, UniProt P02766).
T1 construct: hexahistidine (TEV-cleavable) (cleaved yes); made in house; host or cells: E. coli BL21 Star (DE3), peTM11 plasmid
In words: NMR observation of ligand binding to the recombinant TTR halogen binding pocket. As to conditions: DSS added for reference purposes, Figure S4. How it is done: NMR spectra were acquired at 310 K with a Bruker AVANCE 700 and 800 MHz NMR spectrometer on a U-^2H, ^13C, ^15N-labeled recombinant TTR samples at concentrations of 50–90 μM in PBS buffer at pH 7.0 and 7.4 in a mixture H2O/D2O 90/10%.
The addition of 4,4-dimethyl-4-silapentane-1-sulfonic acid (DSS) for reference purposes led to the observation that DSS binds to the TTR HBP (see Figure S4).

Experiment [1] has as its system TTR. Also on record: method as in PMID 28298647. As to conditions: cited from earlier work.
Experiment [2] concerns TTR. As to conditions: simultaneous occupancy of the two binding sites; cited from earlier work.
Experiment [3] deals with TTR (human wild type TTR isolated from serum) (Homo sapiens, UniProt P02766). In words: Surface plasmon resonance (Biacore T200) of tafamidis binding to immobilised biotinylated TTR. As to conditions: for k2 (off-rate, first binding site) / k4 (off-rate, second binding site): dissociation data fitted to a double exponential. The protocol:
Data were fitted to the model described by Scheme 1. The measured fractional response is then given by {[AB + (2ABB)]/Ai} where Ai is the notional concentration of TTR on the surface. Rate parameters were determined from the global fitting of the association data to the binding equilibria as defined by Scheme 1. […]
Surface Plasm on Resonance. Human wild type TTR isolated from serum (Scipac) was biotinylated according to the method of Alhamadsheh et al . 3 using EZ -link sulfo NHS -LC biotin (Thermoscientific) and immobilised in […]
phosphate buffered saline (PBS), 0.05% Tween20 to achieve 3000-4000 response units of biotinylated TTR bound to the SA-chip surface following the manufacturer’s instructions. To block unoccupied sites, biocytin (50 µM) was flowed across the chip (at a flow rate of 50 µl/min, for 1 min). Finally, the chip was washed with Hepes Buffer Saline, pH 7. 4 (+ 0. 05 % Tween20) running buffer until the SPR signal reached a stable background level.
For all procedures, the running buffer was used at a flow rate of […]. The immobilised TTR surface was […]
30 µl/min) and then running buffer alone to monitor the dissociation phase. Between injections sufficient time
(SPR reads the build-up and loss of mass on a sensor chip optically.)

[4] abbreviates: SPR, ± standard deviation, listed as Tafamidis.

Turning to `C[Si](C)(C)CCCS(=O)(=O)O` [DSS, 4,4-dimethyl-4-silapentane-1-sulfonic acid], the “binding to the TTR HBP” value on TTR HBP is listed as “binds”.
Regarding `O=C(O)c1ccccc1Nc1cc(Cl)c(OCCCCCCCOc2c(Cl)cc(Nc3ccccc3C(=O)O)cc2Cl)c(Cl)c1` [mds84], the “protection against the proteolytic cleavage of the peptide bond 48–49” value in the experiment with TTR [1] was “highest protection”. The “nature of binding by TTR” value in the experiment on TTR [2] is “pseudo-irreversible”.
As to `O=C(O)c1ccc2nc(-c3cc(Cl)cc(Cl)c3)oc2c1` [tafamidis], the “k3 (on-rate, second binding site)” value in experiment [3] (SPR global fit, Scheme 1, ± standard deviation) is reported as “(3.5 ± 1.0) × 10^6 M^–1 s^–1”. Further, the “k1 (on-rate, first binding site)” value in experiment [3] (SPR global fit, Scheme 1, ± standard deviation, three independent experiments) is “(4.5 ± 2.2) × 10^6 M^–1 s^–1”. Further, the “difference in the observed affinities at the two sites” value in experiment [3] (SPR, Kd2 vs Kd1) stood at 7 fold. Also, in experiment [3] (SPR, ± standard deviation), the “k2 (off-rate, first binding site)” value worked out at 0.008 s^–1 and the “k4 (off-rate, second binding site)” value was 0.06 s^–1. Besides, in experiment [3] (setting [4]), the “k2 (off-rate, first binding site)” value is on record as “(0.008 ± 0.001) s^–1” and the “k4 (off-rate, second binding site)” value was “(0.060 ± 0.006) s^–1”. The “k2 (off-rate measured by SPR)” value in experiment [3] (first site, Figure 7 legend) was 0.008 Hz. For the same molecule, in experiment [3] (second site, Figure 7 legend), the “k4 (off-rate measured by SPR)” value is 0.06 Hz.

The record behind these values is paper PMC6863598, “Binding of Monovalent and Bivalent Ligands by Transthyretin Causes Different Short- and Long-Distance Conformational Changes” (Journal of Medicinal Chemistry, 2019).
